# Assays:
# [1] = target: T1, recombinant human DNase I (Homo sapiens, UniProt P24855); assay: Plasmid incision assay of endonuclease activity, recombinant DNase I; type: biochemical
# T1 construct: Recombinant DNase I was produced using a similar approach; made in house
# T1 sequence (P24855 23-282): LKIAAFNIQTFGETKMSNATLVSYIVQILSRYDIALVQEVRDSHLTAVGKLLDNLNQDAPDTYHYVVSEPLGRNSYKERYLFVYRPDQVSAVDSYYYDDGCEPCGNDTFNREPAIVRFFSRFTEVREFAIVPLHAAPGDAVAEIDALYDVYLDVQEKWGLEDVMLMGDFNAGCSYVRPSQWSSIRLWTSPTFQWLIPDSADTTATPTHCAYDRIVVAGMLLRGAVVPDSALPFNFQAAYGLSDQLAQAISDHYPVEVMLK
# Experimental: It was hypothesized that Zn^2+-chelates of aminothiols could provide radioprotection via their direct inhibition of nucleases and their antioxidant properties (i.e., prevent nuclease induction and release). To test this hypothesis, the activity of Zn(II) chelates to inhibit nucleases was assayed in vitro. For this, DNase I and EndoG were cloned, recombinant nuclease were expressed and purified for the in vitro assay. Human and mouse mature EndoG cDNA was reverse transcribed by RT-PCR from either normal human breast epithelial HMEC cells (Clonetics, Walkersville, Md.) or immortalized mouse proximal tubule epithelial TKPTS cells (obtained from D. Elsa Bello-Reuss, University of Texas Medical Branch, Galveston). The plasmid for mature human EndoG (A49-K297) with a C-terminal histidine tag and mouse mature EndoG (A45-K294) with a C-terminal histidine tag were constructed by inserting coding cDNA into pET29b(+) (Novagen, San Diego, Calif.) and expressed in Escherichia coli BL21 (DE3) cells using standard procedures. Expression of the recombinant proteins was induced by IPTG. The expressed recombinant protein was purified by HisTrap FF crude Kit (GE Healthcare, Uppsala, Sweden) and stored in 20 mM Tris-HCl, ph 7.5, 0.5 M NaCl, 2 mM 2-mercaptoethanol, and 50% glycerol.
# (§1) Endonuclease activity was measured using a plasmid incision assay. Activity was measured in 20 μl samples containing 1 μg pBR322 plasmid DNA, 10 mM Tris-HCl, pH 7.7, 25 μg/ml bovine serum albumin V fraction, 0.5 mM dithiothreitol, 5 mM MgCl2, 2 mM CaCl2, and 2 μl endonuclease. After 1 hour incubation at 37° C., the reaction was stopped by the addition 5 μl 1% SDS, 100 mM EDTA. Digested DNA was then subjected to a 1% agarose gel electrophoresis at 7 V/cm for 1 hour at room temperature. The gel was stained in 0.5 μg/ml ethidium bromide solution for 20 minutes and photographed under […]. Scanning densitometer Fotodyne (Fotodyne Inc., Hartland, Wis.) was utilized to quantify the relative amount of endonuclease-treated plasmid DNA present in a covalently closed circular DNA (cccDNA), open circular DNA (ocDNA) or linear DNA (linDNA). One endonuclease unit was defined as the amount of enzyme required to convert 1 μg cccDNA to ocDNA and linDNA.
# (§2) Recombinant DNase I and rat serum DNase (which is predominantly rat DNase I) were incubated with 0, 100, or 200 μM of a Zn^2+-chelate (i.e., Zn-3,5-diisopropylsalicylic acid (DIPS), Zn-gluconate, or Zn-glycinate), a ligand (i.e., DIPS, gluconic acid, or glycine, as negative controls), or ZnCl2 (as positive control).
# [2] = target: T2, rat serum DNase (predominantly rat DNase I) (Rattus norvegicus, UniProt P21704); assay: Plasmid incision assay of endonuclease activity, rat serum DNase; type: biochemical; settings: 0, 100 or 200 μM; 1 hour at 37° C.; pBR322 plasmid DNA
# T2 construct: rat serum DNase (which is predominantly rat DNase I); from tissue; host or cells: rat serum
# T2 sequence (P21704 23-284): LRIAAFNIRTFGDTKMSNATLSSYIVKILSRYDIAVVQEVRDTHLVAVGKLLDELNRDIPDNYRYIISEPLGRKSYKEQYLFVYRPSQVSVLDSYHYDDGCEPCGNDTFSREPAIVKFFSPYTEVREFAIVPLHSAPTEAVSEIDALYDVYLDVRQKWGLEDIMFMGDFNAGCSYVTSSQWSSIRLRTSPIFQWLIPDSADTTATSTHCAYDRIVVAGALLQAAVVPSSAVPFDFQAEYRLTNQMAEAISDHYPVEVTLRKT
# Experimental: as §1, §2
# FRTL-5 thyroid cells = assay: Radiation-induced thyroid cell death (450 Gy), LDH release assay or Comet assay; type: cell-based; settings: added after radiation, 24 hr
# Experimental: FRTL-5 thyroid cells (ATCC, catalog #CRL8305) were irradiated with 450 Gy without or with Zn^2+-chelates added before and/or after irradiation. […] In another experiment, Zn^2+-chelates (i.e., Zn-captopril, Zn-NAC, Zn-penicillamine, or Zn-PTCA) were added to human U937 cells either 30 minutes before, immediately after, or up to 4 hours after irradiation (4 Gy).
# white pulp splenocytes = assay: Total body irradiation of mice (8 Gy), TUNEL-positive white pulp splenocytes; type: in vivo, mouse
# From the text: Mice were exposed to total body irradiation and the radioprotective effects of Zn^+-chelates administered before or after the irradiation were examined. Each unanesthetized mouse was placed temporarily in a well ventilated plexiglass restrainer and exposed to total body irradiation from a cesium irradiator. A dose of 8 Gy was chosen on the basis of previous studies utilizing male CD-1 mice (Bichay et al., 1986, supra). A total of 6-10 animals per group were used. The animals were allowed to survive for 36 hr after irradiation.
# To test for radioprotective effects, Zn-DIPS was injected subcutaneously twice a day 15 mg/kg each time (i.e., 30 mg/kg/day). One group of animals (“before”) received Zn-DIPS starting 2 days before irradiation and continued until 36 hr after irradiation. Another group (“after”) was injected with Zn-DIPS about 30 min […] irradiation and continued until euthanasia. “Vehicle” control animals were injected with vehicle (i.e., saline) for the duration of the experiment, and irradiated with the same dose.
# FIG. 12 presents the number of TUNEL-positive cells in white pulp splenocytes from the different groups.
substance,measurement,setting,value
"Zn-3,5-diisopropylsalicylic acid [Zn-DIPS]",Inhibition of DNase I activity,"[1]; 0, 100 or 200 μM, 1 hour at 37° C., pBR322 plasmid DNA",inhibited
same,Ranking of nuclease inhibition among the Zn^2+-chelates tested,"[1]; DNase I and serum DNase, FIG. 5",best inhibition
same,Inhibition of serum DNase activity,[2],inhibited
same,Protection from radiation-induced thyroid cell death,FRTL-5 thyroid cells,provided protection
same,"Radioprotection (TUNEL-positive white pulp splenocytes), administered before irradiation",white pulp splenocytes; 15 mg/kg s.c. twice a day from 2 days before until 36 hr after irradiation,partial radioprotection
same,"Radioprotection (TUNEL-positive white pulp splenocytes), administered after irradiation","white pulp splenocytes; 15 mg/kg s.c. twice a day, ""after"" group",partial radioprotection
same,Protection of spleen compared with inactivation of DNase I,white pulp splenocytes; versus DNase I knock-out mice,better protection

# Source: patent US8916712B2, “Compositions and methods for cytoprotection” (Board of Trustees of the University of Arkansas, priority 2007, dated 2014)
